Values joined by “and” are separate entries in the source; they are usually repeats but may differ in a detail not shown here. Equal entries are not always repeated. Blank lines part the entries; values can stand above or below the compound they belong to. Residues, ends and D or L forms follow the SMILES beside them. *: point of attachment. Cbz = O=C(OCc1ccccc1)*
Experiments:
[1] = tested on: PD-L1 in U937 cells; experiment: PD-L1 levels in U937 cells by western blotting and flow cytometry; assay type: cell-based, human
Experimental: (§1) Fig. 1 EGFR inhibitors were screened to reduce membrane PD-L1 levels. a High-throughput screening of 2125 FDA-approved drugs or drug candidates. U937 cells were incubated with IFNγ (100 ng/mL) for 48 h, treated with the drugs at 10 μM for 12 h. Ruxolitinib (Rux) was used as a positive control. The hit compounds that induced the decrease of PD-L1 levels are shown in blue. The depth of blue represents decreased level of PD-L1. The heatmap represents the targeted pathways obtained from the high-throughput screening, based upon decreased membrane PD-L1 level detected by flow cytometry. b Immunoblotting of PD-L1 in U937 cells treated with ES-072 (ES) or AZD9291 (AZD) at indicated concentrations for 12 h. ES and AZD are EGFR inhibitors. c, d Median fluorescence intensity (MFI) (c) and relative quantification (d) of PD-L1 in U937 cells treated with 10 μM ES-072 or 10 μM AZD9291 for 12 h. Data represent means ± SEM, n = 18, 6 independent repeats, ****P < 0.0001. e–g Immunoblotting (e, f) and flow cytometry (g) analysis of PD-L1 levels in U937 cells treated with 10 μM ES-072 or 10 μM AZD9291 for the indicated times. h, i Immunoblottings (h) of PD-L1 and β-TrCP, relative quantification (i) of PD-L1 MFI in H1975 cells transfected with non-targeting siRNA (si-CTRL) or β-TrCP siRNAs (si-β-TrCP) and treated with or without 10 μM ES-072/AZD9291 for 12 h. Data represent means ± SEM, n = 9, 3 independent repeats, NS: no significant; ****P < 0.0001. j–l Immunoblotting (j) and flow cytometry analysis (k) with relative quantification (l) of PD-L1 in H1975 cells treated with 10 μM ES-072 or AZD9291, and/or 5 μM LY2090314 (LY) for 12 h. LY is a GSK3 inhibitor. […]
For western blot analysis, cells were collected and washed with PBS, then lysed in radioimmunoprecipitation assay (RIPA) buffer (1% Triton X-100, 100 mM Tris-HCl pH 8.8, 100 mM NaCl, 0.5 mM EDTA). […] The supernatant was collected and the protein concentration was measured by bicinchoninic acid reaction. […] Signals were detected using chemiluminescence reagents (#4AW001-500, 4A649 Biotech, Co.). […]

[2] = tested on: PD-L1 in H1975 cells; experiment: PD-L1 levels in H1975 cells by immunoblotting and flow cytometry; assay type: cell-based, human
Experimental: as §1, with “h.” for “h. LY is a GSK3 inhibitor.”
Fig. 5 GSK3α-mediated phosphorylation of PD-L1 promotes PD-L1-ARIH1 interaction and ARIH1-induced degradation. a Co-IP analysis for the interaction of K48-ubiquitin, ARIH1 (HA), and PD-L1 in HEK293T cells transfected with HA-ARIH1 and Flag-PD-L1 (WT, S279A, S283A, or 2SA), treated with MG132 (10 μM) for 6 h; HA-tagged empty vector (HA-EV) was transfected as a negative control. b Co-IP analysis for the interaction of ARIH1 and PD-L1 in HEK293T cells transfected with HA-ARIH1 and Flag-PD-L1 (WT or 2SA), treated with 10 μM ES-072 for 24 h, Flag-tagged empty vector (Flag-EV) was transfected as a negative control. c HEK293T cells were transfected with Flag-PD-L1. Co-IP analysis for the interaction of ubiquitin and PD-L1 in HEK293T cells transfected with ARIH1-siRNAs or HA-GSK3α and treated with MG132 (10 μM) for 6 h; non-targeting siRNA (si-CTRL) was transfected as a negative control. d Immunoblots of PD-L1 and ARIH1 (HA) in H1975 cells transfected with HA-ARIH1, treated with or without 5 μM LY for 6 h. e, f MFI (e) and relative quantification (f) of PD-L1 in HA-ARIH1-overexpressed H1975 cells, treated with or without 5 μM LY for 6 h. […]

[3] = molecular target: GSK3α (Homo sapiens, UniProt P49840); experiment: In vitro kinase specificity profiling for GSK3α; assay type: biochemical
Chain of GSK3α (P49840 whole entry): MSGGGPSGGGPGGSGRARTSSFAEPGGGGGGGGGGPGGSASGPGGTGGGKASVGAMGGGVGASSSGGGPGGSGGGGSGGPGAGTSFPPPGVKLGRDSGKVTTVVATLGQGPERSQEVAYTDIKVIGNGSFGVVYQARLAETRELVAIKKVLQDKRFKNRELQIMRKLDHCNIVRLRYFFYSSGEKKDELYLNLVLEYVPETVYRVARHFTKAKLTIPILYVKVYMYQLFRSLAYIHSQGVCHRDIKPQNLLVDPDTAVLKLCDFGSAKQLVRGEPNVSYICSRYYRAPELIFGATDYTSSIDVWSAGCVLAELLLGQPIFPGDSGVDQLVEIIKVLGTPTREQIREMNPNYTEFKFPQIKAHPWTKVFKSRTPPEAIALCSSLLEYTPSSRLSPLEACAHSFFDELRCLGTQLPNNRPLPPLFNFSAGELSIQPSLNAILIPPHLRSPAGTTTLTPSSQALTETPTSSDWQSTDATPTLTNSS

SMILES: N#CC[C@H](C1CCCC1)n1cc(-c2ncnc3[nH]ccc23)cn1 [Ruxolitinib]
- IFNγ-induced PD-L1 levels ([1]; 100 ng/mL IFNγ 48 h, 10 μM Ruxolitinib 12 h): blocked

- IC50 ([3]; single independent tests): 0.98 nM and 0.81 nM and 0.84 nM
- IC50 ([3]; value with spread given in main text): 0.87 ± 0.09 nM
SMILES: O=C1NC(=O)C(c2cnc3ccccn23)=C1c1cn2c3c(cc(F)cc13)CN(C(=O)N1CCCCC1)CC2 [LY2090314]
- ARIH1-overexpression-induced degradation of PD-L1 ([2]; H1975 cells transfected with HA-ARIH1, 5 μM LY for 6 h): rescued
- reduction of PD-L1 levels induced following EGFR inhibition ([2]; H1975 cells, 5 μM LY2090314 with 10 μM ES-072 or AZD9291, 12 h): did block this reduction

SMILES: C=CC(=O)Nc1cc(Nc2nccc(-c3cn(C)c4ccccc34)n2)c(OC)cc1N(C)CCN(C)C [AZD9291, Osimertinib]
- IFNγ-induced membranal PD-L1 levels ([1]; western blotting and flow cytometry, 10 μM, 12 h): dramatically reduced

SMILES: CC(C)C[C@@H](C=O)NC(=O)[C@H](CC(C)C)NC(=O)[C@H](CC(C)C)NC(=O)OCc1ccccc1 [MG132] (Cbz-Leu-Leu-Leu-aldehyde)
- decrease in the PD-L1 levels induced by ES-072 ([2]; H1975 cells, 10 μM ES-072 and 10 μM MG132 for 6 h): rescued

— article PMC8058344, “ARIH1 signaling promotes anti-tumor immunity by targeting PD-L1 for proteasomal degradation” (Nature Communications, 2021)
